Results on ten compounds are retold here after patent US9688615B2, “Benzimidazole inhibitors of the sodium channel” (Mark G. DeGiacomo, priority 2011, dated 2017).

Where two headings read alike, the source gives them in different places.

This assay has as its system L5/L6 spinal nerve ligation (SNL) rats, mechanical hyperalgesia. The assay can be described thus: L5/L6 Spinal Nerve Ligation (SNL) Chung pain model, assessment of mechanical hyperalgesia (digital Randall-Selitto). Type of assay: in vivo, male Sprague-Dawley rats. To be noted: p.o.; for Response Threshold (g) 1 hr / Response Threshold (g) 2 hr / Response Threshold (g) 4 hr / effect on mechanical hyperalgesia compared to vehicle treated animals / inhibition in vivo at 30 mg/kg: 30 mg/kg; for effect on mechanical hyperalgesia compared to vehicle treated animals: time points 1, 2, 4 hours after administration. From the text: The Spinal Nerve Ligation is an animal model representing peripheral nerve injury generating a neuropathic pain syndrome. In this model experimental animals develop the clinical symptoms of tactile allodynia and hyperalgesia. L5/L6 Spinal nerve ligation (SNL) injury was induced using the procedure of Kim and Chung (Kim et al., Pain 50:355-363 (1992)) in male Sprague-Dawley rats (Harlan; Indianapolis, Ind.) weighing 200 to 250 grams. An exemplary protocol is provided below
The animals were anesthetized with isoflurane, the left L6 transverse process was removed, and the L5 and L6 spinal nerves were tightly ligated with 6-0 silk suture. The wound was closed with internal sutures and external tissue adhesive.
Baseline and post-treatment values for mechanical hyperalgesia were evaluated using a digital Randall-Selitto device (dRS; IITC Life Sciences, Woodland Hills, Calif.). Animals were allowed to acclimate to the testing room for a minimum of 30 minutes before testing. Animals were placed in a restraint sling that suspends the animal, leaving the hind limbs available for testing. Paw compression threshold was measured once at each time point for the ipsilateral and contralateral paws. The stimulus was applied to the plantar surface of the hind paw by a dome-shaped tip placed between the 3rd and 4th metatarsus, and pressure was applied gradually over approximately 10 seconds. Measurements are taken from the first observed nocifensive behavior of vocalization, struggle or withdrawal. A cut-off value of 300 g was used to prevent injury to the animal. The mean and standard error of the mean (SEM) were determined for each paw for each treatment group. Fourteen days after surgery, mechanical hyperalgesia was assessed and rats were assigned to treatment groups based on pre-treatment baseline values. Prior to initiating drug delivery, baseline behavioural testing data can be obtained. At selected times after infusion of the Test or Control Article behavioural data can then be collected again.

Setting [1] is: Rattus norvegicus, po, 1 hr after administration, read-out: % Reversal 1 hr.
Setting [2] is: Rattus norvegicus, po, 2 hr after administration, read-out: % Reversal 2 hr.
The mark [3] stands for this setting: Rattus norvegicus, po, 4 hr after administration, read-out: % Reversal 4 hr.

`FC(F)(F)c1cc(C(F)(F)F)c2nc(CC3CNC3)[nH]c2c1` [Compound (1), 2-(azetidin-3-ylmethyl)-4,6-bis(trifluoromethyl)-1H-benzo[d]imidazole]: the “effect on mechanical hyperalgesia compared to vehicle treated animals” value (“effect … compared to vehicle treated animals” below) is “significantly decreased mechanical hyperalgesia at 2 and 4 hours”. Further, the “Response Threshold (g) 1 hr” value (1 hr after administration) is listed as 93.8 g. Also, the “Response Threshold (g) 2 hr” value (2 hr after administration) is 120.6 g. In addition, for the setting “4 hr after administration”, the “Response Threshold (g) 4 hr” value was 113.3 g. Moreover, the inhibition in vivo at 30 mg/kg under setting [1] is 9.2%. Besides, under setting [2], the inhibition in vivo at 30 mg/kg was 30.2%. In addition, the inhibition in vivo at 30 mg/kg under setting [3] was 24.4%.

Take `NCC(=O)NCc1nc2cc(C(F)(F)F)cc(C(F)(F)F)c2[nH]1` [Compound (24), 2-amino-N-((5,7-bis(trifluoromethyl)-1H-benzo[d]imidazol-2-yl)methyl)acetamide]: the “effect … compared to vehicle treated animals” value is given as “no significant effect on mechanical hyperalgesia at any time point tested”. Further, the “Response Threshold (g) 1 hr” value (1 hr after administration) was found to be 84.0 g. For the same compound, the “Response Threshold (g) 2 hr” value (2 hr after administration) is recorded as 118.4 g. In addition, under “4 hr after administration”, the “Response Threshold (g) 4 hr” value came out at 116.6 g. Further, the inhibition in vivo at 30 mg/kg under setting [1] turned out to be 0.8%. In addition, the inhibition in vivo at 30 mg/kg under setting [2] came out at 27.9%. Moreover, the inhibition in vivo at 30 mg/kg under setting [3] came out at 26.5%.

In the case of `CC(C)C[C@H](CN)Cc1nc2c(C(F)(F)F)cc(C(F)(F)F)cc2[nH]1` [Compound (31), (S)-2-((4,6-bis(trifluoromethyl)-1H-benzo[d]imidazol-2-yl)methyl)-4-methylpentan-1-amine], the “effect … compared to vehicle treated animals” value is “significantly decreased mechanical hyperalgesia 2 and 4 hours”. For the same compound, the “Response Threshold (g) 1 hr” value (1 hr after administration) is given as 107.9 g. Besides, the “Response Threshold (g) 2 hr” value (2 hr after administration) is given as 139.0 g. Further, where the note is “4 hr after administration”, the “Response Threshold (g) 4 hr” value is given as 109.9 g. Further, the inhibition in vivo at 30 mg/kg under setting [1] was found to be 17.2%. Besides, the inhibition in vivo at 30 mg/kg under setting [2] came out at 48%. Besides, under setting [3], the inhibition in vivo at 30 mg/kg came out at 19.2%.

For the compound `NCCc1nc2cc(C(F)(F)F)cc(C(F)(F)F)c2[nH]1` [Compound (33), 2-(5,7-bis(trifluoromethyl)-1H-benzo[d]imidazol-2-yl)ethanamine], the “effect … compared to vehicle treated animals” value was “significantly decreased mechanical hyperalgesia at 1, 2 and 4 hours”. Further, where the note is “1 hr after administration”, the “Response Threshold (g) 1 hr” value is reported as 113.6 g. For the same compound, the “Response Threshold (g) 2 hr” value (2 hr after administration) was found to be 136.9 g. For the same compound, the “Response Threshold (g) 4 hr” value (4 hr after administration) is 150.8 g. The inhibition in vivo at 30 mg/kg under setting [1] was found to be 22.4%. The inhibition in vivo at 30 mg/kg under setting [2] is 44.7%. Further, the inhibition in vivo at 30 mg/kg under setting [3] amounted to 58.1%.

Regarding `CC(C)(N)Cc1nc2cc(C(F)(F)F)cc(C(F)(F)F)c2[nH]1` [Compound (34), 1-(5,7-bis(trifluoromethyl)-1H-benzo[d]imidazol-2-yl)-2-methylpropan-2-amine], the “effect … compared to vehicle treated animals” value was “significantly decreased mechanical hyperalgesia 2 and 4 hours”. In addition, the “Response Threshold (g) 1 hr” value (1 hr after administration) amounted to 104.5 g. Further, the “Response Threshold (g) 2 hr” value (2 hr after administration) is on record as 144.8 g. In addition, where the note is “4 hr after administration”, the “Response Threshold (g) 4 hr” value turned out to be 132.4 g. For the same compound, the inhibition in vivo at 30 mg/kg under setting [1] came to 15.3%. In addition, the inhibition in vivo at 30 mg/kg under setting [2] amounted to 54.2%. Also, under setting [3], the inhibition in vivo at 30 mg/kg was 42.3%.

For `CC(C)(N)C(=O)NCc1nc2cc(C(F)(F)F)cc(C(F)(F)F)c2[nH]1` [Compound (36), 2-amino-N-((5,7-bis(trifluoromethyl)-1H-benzo[d]imidazol-2-yl)methyl)-2-methylpropanamide], the “effect … compared to vehicle treated animals” value is listed as “no significant effect on mechanical hyperalgesia at any time point tested”. Moreover, for the setting “1 hr after administration”, the “Response Threshold (g) 1 hr” value was 87.8 g. For the same compound, the “Response Threshold (g) 2 hr” value (2 hr after administration) was 107.0 g. Further, the “Response Threshold (g) 4 hr” value (4 hr after administration) stood at 112.3 g. In addition, under setting [1], the inhibition in vivo at 30 mg/kg was -0.5%. Under setting [2], the inhibition in vivo at 30 mg/kg is 18.6%. Under setting [3], the inhibition in vivo at 30 mg/kg is 23.8%.

Consider `CNCc1nc2cc(C(F)(F)F)cc(C(F)(F)F)c2[nH]1` [Compound (41), 1-(5,7-bis(trifluoromethyl)-1H-benzo[d]imidazol-2-yl)-N-methylmethanamine], for which the “effect … compared to vehicle treated animals” value is “significantly decreased mechanical hyperalgesia at 2 and 4 hours”. Also, under “1 hr after administration”, the “Response Threshold (g) 1 hr” value is 99.6 g. Further, where the note is “2 hr after administration”, the “Response Threshold (g) 2 hr” value was found to be 108.3 g. Besides, the “Response Threshold (g) 4 hr” value (4 hr after administration) is on record as 109.0 g. Also, the inhibition in vivo at 30 mg/kg under setting [1] amounted to 13.8%. The inhibition in vivo at 30 mg/kg under setting [2] worked out at 20.7%. Under setting [3], the inhibition in vivo at 30 mg/kg is 21.3%.

Consider `CN(Cc1nc2cc(C(F)(F)F)cc(C(F)(F)F)c2[nH]1)S(N)(=O)=O` [Compound (56), N-{[4,6-bis(trifluoromethyl)-1H-benzimidazol-2-yl]methyl}-N-methylsulfuric diamide], for which the “effect … compared to vehicle treated animals” value was “significantly decreased mechanical hyperalgesia 2 and 4 hours”. Moreover, the “Response Threshold (g) 1 hr” value (1 hr after administration) stood at 110.8 g. Besides, where the note is “2 hr after administration”, the “Response Threshold (g) 2 hr” value came out at 131.4 g. In addition, the “Response Threshold (g) 4 hr” value (4 hr after administration) turned out to be 140.4 g. For the same compound, the inhibition in vivo at 30 mg/kg under setting [1] is 19.8%. Also, the inhibition in vivo at 30 mg/kg under setting [2] turned out to be 40.4%. For the same compound, under setting [3], the inhibition in vivo at 30 mg/kg stood at 49.4%.

Regarding `O=C1CNCCN1Cc1nc2cc(C(F)(F)F)cc(C(F)(F)F)c2[nH]1` [Compound (110), 1-((5,7-bis(trifluoromethyl)-1H-benzo[d]imidazol-2-yl)methyl)piperazin-2-one], the “effect … compared to vehicle treated animals” value was “significantly decrease mechanical hyperalgesia at two and four hours”. Also, for the setting “1 hr after administration”, the “Response Threshold (g) 1 hr” value was 100.6 g. Under “2 hr after administration”, the “Response Threshold (g) 2 hr” value turned out to be 148.5 g. For the same compound, the “Response Threshold (g) 4 hr” value (4 hr after administration) is recorded as 126.1 g. The inhibition in vivo at 30 mg/kg under setting [1] was found to be 14.6%. Besides, the inhibition in vivo at 30 mg/kg under setting [2] was 51.2%. Further, under setting [3], the inhibition in vivo at 30 mg/kg came out at 34.1%.

Turning to `NCC1(CC(=O)O)CCCCC1` [Gabapentin], the inhibition in vivo at 100 mg/kg (Rattus norvegicus, po, 2 h, 100 mg/kg, 2 hr after administration, read-out: % Reversal 2 hr) amounted to 55.3%.
